Data as given in patent US20250011368A1, “DLL3 TARGETING PEPTIDES AND CONSTRUCTS THEREOF” (MARIANA ONCOLOGY INC., priority 2023, published 2025).
Bridge positions count the residues as written; N and C are the ends. Square brackets hold non-standard residues; d marks the D form. Peptide text beside a SMILES is read from it. * marks the point of attachment. ξ: configuration not given here. X4 = O=C(O)CN1CCN(CC(=O)O)CCN(CC(=O)N[C@H]2CC[C@H](CC(=O)*)CC2)CCN(CC(=O)O)CC1; DOTA = O=C(O)CN1CCN(CC(=O)O)CCN(CC(=O)*)CCN(CC(=O)O)CC1; Trp(7-aza) = N[C@@H](Cc1c[nH]c2ncccc12)C(=O)O; 1Nal = N[C@@H](Cc1cccc2ccccc12)C(=O)O; 2Nal = N[C@@H](Cc1ccc2ccccc2c1)C(=O)O; ξC = NC(CS)C(=O)O

Target: T1, human DLL3 (Homo sapiens, UniProt Q9NYJ7)
T1 sequence (Q9NYJ7 27-618): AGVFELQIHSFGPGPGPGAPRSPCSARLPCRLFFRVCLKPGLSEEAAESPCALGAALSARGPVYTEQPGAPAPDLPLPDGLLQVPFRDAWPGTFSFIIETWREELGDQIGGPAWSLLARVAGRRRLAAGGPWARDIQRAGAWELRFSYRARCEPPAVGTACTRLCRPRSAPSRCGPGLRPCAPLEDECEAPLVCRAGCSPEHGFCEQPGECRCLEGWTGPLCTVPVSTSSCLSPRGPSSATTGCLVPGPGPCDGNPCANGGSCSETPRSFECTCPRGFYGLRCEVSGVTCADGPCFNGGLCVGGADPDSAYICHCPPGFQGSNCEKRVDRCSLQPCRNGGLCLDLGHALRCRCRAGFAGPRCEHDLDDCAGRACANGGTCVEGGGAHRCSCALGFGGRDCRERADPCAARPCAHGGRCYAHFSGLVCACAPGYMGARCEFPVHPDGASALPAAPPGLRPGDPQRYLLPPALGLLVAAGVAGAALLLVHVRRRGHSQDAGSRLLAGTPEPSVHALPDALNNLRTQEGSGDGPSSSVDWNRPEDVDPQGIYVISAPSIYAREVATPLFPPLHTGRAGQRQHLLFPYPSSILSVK
Assay: Affinity determination by Surface Plasmon Resonance (SPR)
Assay type: binding
Details: 25° C., biotinylated human DLL3 immobilized on streptavidin sensor chip, 1:1 binding model; read-out: SPR KD
Protocol: SPR studies were performed on the compounds disclosed herein using the following protocol.
Biotinylated target ligand human DLL3 was immobilized on a streptavidin sensor chip. A reference surface was set up for nonspecific binding and refractive index changes. For analysis of the kinetics of interactions, varying concentrations of samples were injected at a flow rate of 100 μL/minute using running buffer containing 20 mM phosphate buffer with 2.7 mM KCl, 137 mM NaCl, 0.05% Surfactant P20 and 2% DMSO. Sensorgram curves were fitted with 1:1 binding model, and affinity and kinetic parameters were obtained using Biacore Insight evaluation 4.0. software.

| SMILES | Kd [nM] |
| --- | --- |
| CC[C@H](C)[C@H](NC(=O)[C@@H](NC(=O)[C@H](Cc1c[nH]c2ccccc12)NC(C)=O)[C@@H](C)O)C(=O)N[C@H]1CSSC[C@@H](C(=O)N[C@@H](Cc2c[nH]c3ccccc23)C(=O)N2CCC[C@H]2C(=O)N[C@H](CCCCNC(=O)C[C@H]2CC[C@H](NC(=O)CN3CCN(CC(=O)O)CCN(CC(=O)O)CCN(CC(=O)O)CC3)CC2)C(N)=O)NC(=O)[C@H](CC(=O)O)NC(=O)[C@H](Cc2cnc[nH]2)NC(=O)[C@H](Cc2c[nH]c3ccccc23)NC(=O)[C@H](CC(N)=O)NC(=O)[C@H](CC(N)=O)NC1=O [compound 48, Ac-W-T-I-C(3)-N-N-W-H-D-C(3)-W-P-(D-Lys)-CyHex-DOTA-NH2] (Ac-WTICNNWHDCWP[dK](X4)-NH2; disulfide 4-10) | 1 to 10 |
| CC[C@H](C)[C@H](NC(=O)[C@@H](NC(=O)[C@H](Cc1c[nH]c2ccccc12)NC(C)=O)[C@@H](C)O)C(=O)N[C@H]1CSSC[C@@H](C(=O)N[C@@H](Cc2c[nH]c3ccccc23)C(=O)N2CCC[C@H]2C(=O)N[C@H](CCCCNC(=O)CN2CCN(CC(=O)O)CCN(CC(=O)O)CCN(CC(=O)O)CC2)C(N)=O)NC(=O)[C@H](CC(=O)O)NC(=O)[C@H](Cc2cnc[nH]2)NC(=O)[C@H](Cc2cccc3ccccc23)NC(=O)[C@H](CC(N)=O)NC(=O)[C@H](CC(N)=O)NC1=O [compound 74, Ac-W-T-I-C(3)-N-N-(1Nal)-H-D-C(3)-W-P-[D-Lys(DOTA)]-NH2] (Ac-WTICNN[1Nal]HDCWP[dK](DOTA)-NH2; disulfide 4-10) | 1 to 10 |
| CC[C@H](C)[C@H](NC(=O)[C@@H](NC(=O)[C@H](Cc1c[nH]c2ccccc12)NC(C)=O)[C@@H](C)O)C(=O)N[C@H]1CSSC[C@@H](C(=O)N[C@@H](Cc2ccc3ccccc3c2)C(=O)N2CCC[C@H]2C(=O)N[C@H](CCCCNC(=O)CN2CCN(CC(=O)O)CCN(CC(=O)O)CCN(CC(=O)O)CC2)C(N)=O)NC(=O)[C@H](CC(=O)O)NC(=O)[C@H](Cc2cnc[nH]2)NC(=O)[C@H](Cc2c[nH]c3ccccc23)NC(=O)[C@H](CC(N)=O)NC(=O)[C@H](CC(N)=O)NC1=O [compound 77, Ac-W-T-I-C(3)-N-N-W-H-D-C(3)-(2Nal)-P-[D-Lys(DOTA)]-NH2] (Ac-WTICNNWHDC[2Nal]P[dK](DOTA)-NH2; disulfide 4-10) | 10 to 100 |

Results, then the compound that gave them:

| Kd [nM] | SMILES |
| --- | --- |
| 1 to 10 | CC[C@H](C)[C@H](NC(=O)[C@@H](NC(=O)[C@H](Cc1c[nH]c2ccccc12)NC(C)=O)[C@@H](C)O)C(=O)N[C@H]1CSSC[C@@H](C(=O)N[C@@H](Cc2cccc3ccccc23)C(=O)N2CCC[C@H]2C(=O)N[C@H](CCCCNC(=O)CN2CCN(CC(=O)O)CCN(CC(=O)O)CCN(CC(=O)O)CC2)C(N)=O)NC(=O)[C@H](CC(=O)O)NC(=O)[C@H](Cc2cnc[nH]2)NC(=O)[C@H](Cc2c[nH]c3ccccc23)NC(=O)[C@H](CC(N)=O)NC(=O)[C@H](CC(N)=O)NC1=O [compound 76, Ac-W-T-I-C(3)-N-N-W-H-D-C(3)-(1Nal)-P-[D-Lys(DOTA)]-NH2] (Ac-WTICNNWHDC[1Nal]P[dK](DOTA)-NH2; disulfide 4-10) |
| 1 to 10 | CC[C@H](C)[C@H](NC(=O)[C@@H](NC(=O)[C@H](Cc1c[nH]c2ccccc12)NC(C)=O)[C@@H](C)O)C(=O)N[C@H]1CSSCC(C(=O)N[C@@H](Cc2c[nH]c3ccccc23)C(=O)N2CCC[C@H]2C(=O)N[C@H](CCCCNC(=O)CN2CCN(CC(=O)O)CCN(CC(=O)O)CCN(CC(=O)O)CC2)C(N)=O)NC(=O)[C@H](CC(=O)O)NC(=O)[C@H](Cc2cnc[nH]2)NC(=O)[C@H](Cc2c[nH]c3ncccc23)NC(=O)[C@H](CC(N)=O)NC(=O)[C@H](CC(N)=O)NC1=O (stereo partly drawn) [compound 85, Ac-W-T-I-C(3)-N-N-(7Aza-W)-H-D-C(3)-W-P-[D-Lys(DOTA)]-NH2] (Ac-WTICNN[Trp(7-aza)]HD[ξC]WP[dK](DOTA)-NH2; disulfide 4-10) |
